Patent US20220370440A1 (Lead Discovery Center GmbH, priority 2018, published 2022)

What was measured:
HER2 INS YVMA = target: T1, HER2 INS YVMA (Homo sapiens, UniProt P04626, INS775YVMA); assay: Lance Kinase Activity Assay, HER2 INS YVMA (Her2 Exon 20 INSYVMA Lance); assay type: biochemical; details: biochemical Lance assay
T1 construct: purchased DPF
Description: 1. Measurement of HER2 INS YVMA Kinase Activity
This protocol describes how the Lance Kinase Activity Assay was performed to determine IC50 values of compounds of general formula (I) against HER2 INS YVMA. The principle behind this enzymatic assay is based upon the phosphorylation of the Ulight-peptide substrate. It is detected by using a specific EU-labeled anti-phospho peptide antibody. The binding of the Eu labeled anti-phospho peptide antibody to the phosphorylated ULight labeled peptide gives rise to a FRET-signal.
Binding of an inhibitor to the kinase prevents phosphorylation of the Ulight-substrate, resulting in a loss of FRET. In table 2 is summarized the relevant information for the LANCE assay.
The compounds of general formula (I) summarized in Table 3 were serial diluted from a 10 mM DMSO stock solution 1:3 over 8 steps in a total volume of 20 μl.
For every sample, 8 μl of kinase-substrate mix was transferred into a suitable assay plate (e.g. Corning #3673). Compound was added via pintool transfer (10 nl/well) using a Biomek FX robot (BeckmanCoulter). Reaction was started by addition of 2 μl ATP working solution and mixed using variomag teleshaker (Thermo Fischer Scientific). After 1 h incubation at room temperature the reaction was stopped with 10 μl detection mix containing the Eu-labeled phosphospecific antibody and 10 mM EDTA. After a second incubation period of 1 h at room temperature the FRET signal was measured at 340 nm excitation, 665 nm and 615 nm emission (for the ULight-substrate and Eu-AB, respectively) with an Envision spectrophotometer (Perkin Elmer, Waltham, Mass., USA) with 50 μs delay and 300 μs integration time. IC50 values were determined from the sigmoidal dose response curves with the software Quattro Workflow (Quattro GmbH, Munich, Germany).

[1] = target: Her2 Exon 20 INSYVMA Ba/F3 (Homo sapiens, UniProt P04626, DUP772-775, cells depend on it); assay: Her2 Exon 20 INSYVMA Ba/F3 CellTiter-Glo; assay type: cell-based; details: CellTiter-Glo, 72 h, read-out: Her2 Exon 20 INSYVMA Ba/F3 CTG IC50
Chain of Her2 Exon 20 INSYVMA Ba/F3 (P04626 with tags, fused parts or gaps DUP772-775): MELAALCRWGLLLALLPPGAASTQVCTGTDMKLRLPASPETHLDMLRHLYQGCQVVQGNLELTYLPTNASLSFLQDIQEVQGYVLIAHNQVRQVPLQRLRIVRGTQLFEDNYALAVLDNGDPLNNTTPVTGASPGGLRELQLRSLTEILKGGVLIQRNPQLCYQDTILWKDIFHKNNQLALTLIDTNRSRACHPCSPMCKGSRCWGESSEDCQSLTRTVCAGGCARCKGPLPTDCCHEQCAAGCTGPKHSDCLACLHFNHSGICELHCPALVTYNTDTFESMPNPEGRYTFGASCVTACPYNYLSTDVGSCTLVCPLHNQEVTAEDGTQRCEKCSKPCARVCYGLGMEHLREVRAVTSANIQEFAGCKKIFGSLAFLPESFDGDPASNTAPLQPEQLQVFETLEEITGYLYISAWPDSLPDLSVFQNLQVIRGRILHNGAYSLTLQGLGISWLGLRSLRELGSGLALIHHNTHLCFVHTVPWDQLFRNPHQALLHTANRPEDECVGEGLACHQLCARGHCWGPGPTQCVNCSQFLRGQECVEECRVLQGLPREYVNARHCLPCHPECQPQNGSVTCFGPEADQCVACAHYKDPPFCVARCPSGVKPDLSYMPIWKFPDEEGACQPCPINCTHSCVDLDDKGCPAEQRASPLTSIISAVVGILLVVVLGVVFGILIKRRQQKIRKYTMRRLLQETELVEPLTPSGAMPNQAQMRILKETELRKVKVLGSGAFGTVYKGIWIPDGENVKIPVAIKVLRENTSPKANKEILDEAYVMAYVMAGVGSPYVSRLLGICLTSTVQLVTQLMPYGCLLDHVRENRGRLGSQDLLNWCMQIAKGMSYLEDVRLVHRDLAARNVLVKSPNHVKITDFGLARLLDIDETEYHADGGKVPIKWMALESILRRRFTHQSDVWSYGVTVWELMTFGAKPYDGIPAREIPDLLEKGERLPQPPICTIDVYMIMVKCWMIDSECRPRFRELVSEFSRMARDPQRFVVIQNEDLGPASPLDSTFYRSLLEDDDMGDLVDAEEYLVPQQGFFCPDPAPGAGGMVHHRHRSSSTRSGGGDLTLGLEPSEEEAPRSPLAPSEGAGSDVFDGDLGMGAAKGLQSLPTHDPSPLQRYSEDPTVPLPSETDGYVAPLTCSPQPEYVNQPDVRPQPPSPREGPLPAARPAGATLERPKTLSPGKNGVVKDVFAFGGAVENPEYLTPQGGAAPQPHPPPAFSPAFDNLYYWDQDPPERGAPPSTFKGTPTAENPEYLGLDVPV
Description: (§1) 2. Measurement of Cellular Activity
(§2) The CellTiter-Glo Luminescent Cell Viability Assay (Promega) is a homogeneous method of determining the number of viable cells in culture. It is based on quantification of ATP, indicating the presence of metabolically active cells. Cells are seeded on day 1 at cell numbers that assure assay linearity and optimal signal intensity. After incubation for 24 h in humidified chambers at 37° C. and 5% CO2, compounds in DMSO are added at different concentrations. Cells are further incubated for 72 h at 37° C. and 5% CO2. Cells treated with the compound vehicle DMSO are used as positive controls and cells treated with 10 μM Staurosporine serve as negative controls. At day 5 the CellTiter Glo Reagent is prepared according to the instructions of the kit (Promega Inc.): Reagent is mixed 1:1 with cell culture medium. Thereon, mixture and assay plates are equilibrated at room temperature for 20 min. Equal volumes of the reagent-medium-mixture is added to the volume of culture medium present in each well. The plates are mixed at ˜200 rpm for 2 minutes on an orbital shaker. The microplates are then incubated at room temperature for 10 minutes for stabilization of the luminescent signal. Following incubation the luminescence is recorded on a Victor microplate reader (Perkin Elmer) using a 200 ms integration time. The data is then analyzed with Excel using the XLFIT Plugin (dose response Fit 205) for IC50-determination. As quality control the Z′-factor is calculated from 16 positive and negative control values. Only assay results showing a Z′-factor ≥0.5 are used for further analysis.
(§3) Inhibition is indicated as IC50 [nM] (“−”=not measured). Compounds having an activity designated as “A” provided an IC50≤100 nM; compounds having an activity designated as “B” provided an 100 nM<IC50≤500 nM; compounds having an activity designated as “C” provided an 500 nM<IC50≤1000 nM; compounds having an activity designated as “D” provided an 1000 nM<IC50≤10000 nM; and compounds having an activity designated as “E” provided an IC50>10000 nM.

[2] = target: EGFR Exon 20 INSNPH Ba/F3 (Homo sapiens, UniProt P00533, DUP771-773, cells depend on it); assay: EGFR Exon 20 INSNPH Ba/F3 CellTiter-Glo; assay type: cell-based; details: CellTiter-Glo, 72 h, read-out: EGFR Exon 20 INSNPH Ba/F3 CTG IC50
Chain of EGFR Exon 20 INSNPH Ba/F3 (P00533 with tags, fused parts or gaps DUP771-773): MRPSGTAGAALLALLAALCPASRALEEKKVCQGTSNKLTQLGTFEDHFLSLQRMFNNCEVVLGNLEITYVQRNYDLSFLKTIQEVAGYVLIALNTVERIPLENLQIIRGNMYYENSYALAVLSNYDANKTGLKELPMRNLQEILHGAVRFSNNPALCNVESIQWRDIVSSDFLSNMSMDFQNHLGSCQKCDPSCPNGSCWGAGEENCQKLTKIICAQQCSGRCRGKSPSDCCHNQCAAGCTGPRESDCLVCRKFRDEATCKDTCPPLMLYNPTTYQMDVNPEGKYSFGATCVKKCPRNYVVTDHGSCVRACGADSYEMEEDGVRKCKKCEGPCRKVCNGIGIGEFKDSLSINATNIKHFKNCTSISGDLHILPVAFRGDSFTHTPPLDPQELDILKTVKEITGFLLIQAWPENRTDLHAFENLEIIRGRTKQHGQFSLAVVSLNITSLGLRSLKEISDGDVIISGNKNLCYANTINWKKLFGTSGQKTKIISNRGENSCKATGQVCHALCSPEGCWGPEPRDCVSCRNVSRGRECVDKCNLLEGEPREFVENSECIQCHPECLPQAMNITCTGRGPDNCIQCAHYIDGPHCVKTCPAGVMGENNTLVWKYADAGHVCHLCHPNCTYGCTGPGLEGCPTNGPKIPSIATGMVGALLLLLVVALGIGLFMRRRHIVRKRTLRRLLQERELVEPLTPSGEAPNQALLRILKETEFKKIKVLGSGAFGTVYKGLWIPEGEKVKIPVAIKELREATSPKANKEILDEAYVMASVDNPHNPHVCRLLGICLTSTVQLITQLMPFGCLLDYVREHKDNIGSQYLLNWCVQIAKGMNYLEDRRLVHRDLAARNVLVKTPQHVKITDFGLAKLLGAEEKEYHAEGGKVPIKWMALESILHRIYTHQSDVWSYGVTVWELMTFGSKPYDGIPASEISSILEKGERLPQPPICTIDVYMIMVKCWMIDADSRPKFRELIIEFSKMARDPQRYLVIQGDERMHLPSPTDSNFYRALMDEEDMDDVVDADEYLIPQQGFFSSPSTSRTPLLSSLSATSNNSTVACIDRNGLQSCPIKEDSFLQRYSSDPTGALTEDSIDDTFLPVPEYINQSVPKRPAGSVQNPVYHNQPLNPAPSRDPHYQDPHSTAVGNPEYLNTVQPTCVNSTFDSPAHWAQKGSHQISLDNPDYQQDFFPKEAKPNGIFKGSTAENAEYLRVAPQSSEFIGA
Description: as §1, §2, §3

EGFR T790ML858R = EGFR T790ML858R (Homo sapiens, UniProt P00533, L858R/T790M); assay: EGFR T790ML858R Lance assay; assay type: biochemical
Description: (§4) Inhibition is indicated as […] [nM] (“−”=not measured). Compounds having an activity designated as “A” provided an IC50≤100 nM; compounds having an activity designated as “B” provided an 100 nM<IC50≤500 nM; compounds having an activity designated as “C” provided an 500 nM<IC50≤1000 nM; compounds having an activity designated as “D” provided an 1000 nM<IC50≤100000 nM; and compounds having an activity designated as “E” provided an IC50>10000 nM.

EGFR wt = EGFR wt (Homo sapiens, UniProt P00533); assay: EGFR wt Lance assay; assay type: biochemical
Chain of EGFR wt (P00533 25-1210): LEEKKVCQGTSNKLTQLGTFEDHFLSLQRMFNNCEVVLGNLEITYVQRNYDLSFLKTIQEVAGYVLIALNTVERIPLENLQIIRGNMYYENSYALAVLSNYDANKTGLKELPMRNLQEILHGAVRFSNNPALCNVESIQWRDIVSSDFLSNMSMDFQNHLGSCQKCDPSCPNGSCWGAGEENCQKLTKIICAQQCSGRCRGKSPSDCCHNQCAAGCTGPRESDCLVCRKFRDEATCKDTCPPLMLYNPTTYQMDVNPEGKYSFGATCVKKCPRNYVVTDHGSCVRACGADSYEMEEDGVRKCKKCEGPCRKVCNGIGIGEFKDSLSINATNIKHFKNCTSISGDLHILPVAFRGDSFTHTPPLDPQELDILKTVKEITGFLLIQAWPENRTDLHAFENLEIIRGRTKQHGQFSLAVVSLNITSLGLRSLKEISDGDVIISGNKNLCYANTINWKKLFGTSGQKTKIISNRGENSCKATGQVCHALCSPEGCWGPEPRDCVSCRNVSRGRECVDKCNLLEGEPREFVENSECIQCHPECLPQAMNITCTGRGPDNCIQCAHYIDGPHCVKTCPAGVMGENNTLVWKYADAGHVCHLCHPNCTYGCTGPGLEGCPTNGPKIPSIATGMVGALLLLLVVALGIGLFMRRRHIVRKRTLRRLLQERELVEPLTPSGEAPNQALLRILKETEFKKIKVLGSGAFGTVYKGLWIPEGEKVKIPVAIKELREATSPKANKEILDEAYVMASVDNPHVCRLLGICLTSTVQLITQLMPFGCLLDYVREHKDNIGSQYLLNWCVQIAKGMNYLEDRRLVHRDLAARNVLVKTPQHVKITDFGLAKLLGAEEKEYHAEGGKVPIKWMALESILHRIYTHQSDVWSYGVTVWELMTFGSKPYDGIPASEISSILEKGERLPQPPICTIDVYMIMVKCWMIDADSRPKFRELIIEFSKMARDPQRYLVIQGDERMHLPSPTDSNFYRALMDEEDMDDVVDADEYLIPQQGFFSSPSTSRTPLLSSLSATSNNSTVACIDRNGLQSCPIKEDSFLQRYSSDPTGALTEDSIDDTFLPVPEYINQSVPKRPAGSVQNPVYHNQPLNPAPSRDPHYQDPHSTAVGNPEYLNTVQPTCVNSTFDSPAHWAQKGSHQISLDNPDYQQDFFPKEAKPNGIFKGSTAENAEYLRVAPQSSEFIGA
Description: as §4

H1975 = H1975 CellTiter-Glo; assay type: cell-based; details: Homo sapiens, NCI-H1975; 72 h compound incubation; read-out: H1975 CTG IC50
Description: as §1, §2, §4

A431 = A431 CellTiter-Glo; assay type: cell-based; details: Homo sapiens, A-431; 72 h compound incubation; read-out: A431 CTG IC50
Description: as §1, §2, §4

T1 sequence (P04626 with tags, fused parts or gaps INS775YVMA): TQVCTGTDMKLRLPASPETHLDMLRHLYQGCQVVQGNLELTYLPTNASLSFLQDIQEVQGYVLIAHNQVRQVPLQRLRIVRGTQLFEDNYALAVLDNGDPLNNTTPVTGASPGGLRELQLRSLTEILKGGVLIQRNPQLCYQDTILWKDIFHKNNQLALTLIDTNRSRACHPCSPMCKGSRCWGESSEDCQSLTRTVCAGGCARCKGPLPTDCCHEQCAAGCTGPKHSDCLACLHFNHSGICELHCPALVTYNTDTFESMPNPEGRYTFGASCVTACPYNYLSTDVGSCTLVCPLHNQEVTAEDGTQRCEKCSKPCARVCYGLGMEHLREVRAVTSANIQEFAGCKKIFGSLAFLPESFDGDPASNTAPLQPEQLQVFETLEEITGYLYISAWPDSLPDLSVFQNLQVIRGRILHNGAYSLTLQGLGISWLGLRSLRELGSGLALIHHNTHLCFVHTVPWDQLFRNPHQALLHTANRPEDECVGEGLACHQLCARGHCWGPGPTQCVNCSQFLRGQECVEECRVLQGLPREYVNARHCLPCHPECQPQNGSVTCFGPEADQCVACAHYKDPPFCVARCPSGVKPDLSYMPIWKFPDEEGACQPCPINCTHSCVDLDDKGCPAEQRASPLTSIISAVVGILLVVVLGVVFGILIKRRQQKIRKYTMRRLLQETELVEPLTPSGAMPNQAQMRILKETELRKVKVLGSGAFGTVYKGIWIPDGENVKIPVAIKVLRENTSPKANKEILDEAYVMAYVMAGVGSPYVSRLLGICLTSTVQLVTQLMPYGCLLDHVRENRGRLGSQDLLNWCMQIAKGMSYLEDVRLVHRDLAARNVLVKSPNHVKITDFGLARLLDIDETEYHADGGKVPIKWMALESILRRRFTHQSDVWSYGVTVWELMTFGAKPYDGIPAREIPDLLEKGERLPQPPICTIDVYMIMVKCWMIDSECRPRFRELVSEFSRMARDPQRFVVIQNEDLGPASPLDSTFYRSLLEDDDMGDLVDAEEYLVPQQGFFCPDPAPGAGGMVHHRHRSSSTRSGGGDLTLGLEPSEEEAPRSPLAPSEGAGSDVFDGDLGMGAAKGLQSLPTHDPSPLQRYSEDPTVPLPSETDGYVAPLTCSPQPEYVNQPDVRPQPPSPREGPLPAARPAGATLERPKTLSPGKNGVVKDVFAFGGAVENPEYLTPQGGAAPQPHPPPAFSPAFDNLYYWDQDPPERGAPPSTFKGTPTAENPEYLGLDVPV

Row | Structure (SMILES) | IC50 (HER2 INS YVMA) | GI50 [1] | GI50 [2] | IC50 (EGFR T790ML858R) | IC50 (EGFR wt) | IC50 (H1975) | IC50 (A431)
1 | C=CC(=O)Nc1cc(-c2c(-c3ccc(N4CCN(C)CC4)cc3)[nH]c3ncc(CO)cc23)ccc1C [Example 199, N-(5-(5-(hydroxymethyl)-2-(4-(4-methylpiperazin-1-yl)phenyl)-1H-pyrrolo[2,3-b]pyridin-3-yl)-2-methylphenyl)acrylamide 2,2,2-trifluoroacetate] | ≤ 100 nM | 500 to 1000 nM | 100 to 500 nM | ≤ 100 nM | ≤ 100 nM | 100 to 500 nM | 1000 to 100000 nM
2 | C=CC(=O)N1CCc2ccc(-c3c(-c4ccc(CN(C)C)cc4)[nH]c4nccc(OCC)c34)cc21 [Example 106, 1-(6-(2-(4-((dimethylamino)methyl)phenyl)-4-ethoxy-1H-pyrrolo[2,3-b]pyridin-3-yl)indolin-1-yl)prop-2-en-1-one] | ≤ 100 nM | 100 to 500 nM | 100 to 500 nM | ≤ 100 nM | ≤ 100 nM | ≤ 100 nM | 500 to 1000 nM
3 | C=CC(=O)Nc1cc(-c2c(-c3ccc(N4CCN(C)CC4)cc3)[nH]c3ncc(C(=O)OC4CCC4)cc23)ccc1C [Example 136, cyclobutyl 3-(3-acrylamido-4-methylphenyl)-2-(4-(4-methylpiperazin-1-yl)phenyl)-1H-pyrrolo[2,3-b]pyridine-5-carboxylate] | ≤ 100 nM | 100 to 500 nM | 100 to 500 nM | ≤ 100 nM | ≤ 100 nM | 100 to 500 nM | 1000 to 100000 nM
4 | C=CC(=O)Nc1cc(-c2c(-c3ccc(OCCO)cc3)[nH]c3ncc(C(=O)OC(C)C)cc23)ccc1C [Example 178, isopropyl 3-(3-acrylamido-4-methylphenyl)-2-(4-(2-hydroxyethoxy)phenyl)-1H-pyrrolo[2,3-b]pyridine-5-carboxylate] | 100 to 500 nM | 1000 to 10000 nM | 500 to 1000 nM | 100 to 500 nM | ≤ 100 nM | 1000 to 100000 nM | 1000 to 100000 nM
5 | C=CC(=O)NCc1cccc(-c2c(-c3ccc(N4CCN(C)CC4)cc3)[nH]c3ncc(C(=O)OC(C)C)cc23)c1 [Example 203, isopropyl 3-(3-(acrylamidomethyl)phenyl)-2-(4-(4-methylpiperazin-1-yl)phenyl)-1H-pyrrolo[2,3-b]pyridine-5-carboxylate 2,2,2-trifluoroacetate] | 1000 to 10000 nM | 1000 to 10000 nM | 1000 to 10000 nM | 500 to 1000 nM | 100 to 500 nM | 1000 to 100000 nM | 1000 to 100000 nM
6 | C=CC(=O)Nc1cc(-c2c(-c3ccc(N4CCN(C)CC4)cc3)[nH]c3ncc(C(=O)OC4CCCC4)cc23)ccc1C [Example 139, cyclopentyl 3-(3-acrylamido-4-methylphenyl)-2-(4-(4-methylpiperazin-1-yl)phenyl)-1H-pyrrolo[2,3-b]pyridine-5-carboxylate] | 100 to 500 nM | 500 to 1000 nM | 500 to 1000 nM | ≤ 100 nM | ≤ 100 nM | 100 to 500 nM | 1000 to 100000 nM
7 | C=CC(=O)N1CCOc2ccc(-c3c(-c4ccc(OCCN5CCCC5)cc4)[nH]c4nccc(Cl)c34)cc21 [Example 101, 1-(6-(4-chloro-2-(4-(2-(pyrrolidin-1-yl)ethoxy)phenyl)-1H-pyrrolo[2,3-b]pyridin-3-yl)-2H-benzo[b][1,4]oxazin-4(3H)-yl)prop-2-en-1-one] | ≤ 100 nM | 100 to 500 nM | 100 to 500 nM | ≤ 100 nM | ≤ 100 nM | 100 to 500 nM | 1000 to 100000 nM
8 | C=CC(=O)N1CCCc2ccc(-c3c(-c4ccc(OCCN5CCCC5)cc4)[nH]c4nccc(Cl)c34)cc21 [Example 90, 1-(7-(4-chloro-2-(4-(2-(pyrrolidin-1-yl)ethoxy)phenyl)-1H-pyrrolo[2,3-b]pyridin-3-yl)-3,4-dihydroquinolin-1(2H)-yl)prop-2-en-1-one] | ≤ 100 nM | 500 to 1000 nM | 1000 to 10000 nM | ≤ 100 nM | ≤ 100 nM | 100 to 500 nM | 1000 to 100000 nM
9 | C=CC(=O)Nc1cc(-c2c(-c3cccc(CN4CCN(C)CC4)c3)[nH]c3ncc(C(=O)OC(C)C)cc23)ccc1C [Example 181, isopropyl 3-(3-acrylamido-4-methylphenyl)-2-(3-((4-methylpiperazin-1-yl)methyl)phenyl)-1H-pyrrolo[2,3-b]pyridine-5-carboxylate] | ≤ 100 nM | 500 to 1000 nM | 500 to 1000 nM | ≤ 100 nM | ≤ 100 nM | 500 to 1000 nM | 1000 to 100000 nM
10 | C=CC(=O)N1CCCc2ccc(-c3c(-c4ccc(CN5CCN(C)CC5)nc4)[nH]c4nccc(Cl)c34)cc21 [Example 89, 1-(7-(4-chloro-2-(6-((4-methylpiperazin-1-yl)methyl)pyridin-3-yl)-1H-pyrrolo[2,3-b]pyridin-3-yl)-3,4-dihydroquinolin-1(2H)-yl)prop-2-en-1-one] | ≤ 100 nM | 100 to 500 nM | 100 to 500 nM | ≤ 100 nM | ≤ 100 nM | 100 to 500 nM | 500 to 1000 nM
11 | C=CC(=O)Nc1cc(-c2c(-c3ccc(N4CCN(S(=O)(=O)CC)CC4)cc3)[nH]c3ncc(C(=O)OC(C)C)cc23)ccc1C [Example 184, isopropyl 3-(3-acrylamido-4-methylphenyl)-2-(4-(4-(ethylsulfonyl)piperazin-1-yl)phenyl)-1H-pyrrolo[2,3-b]pyridine-5-carboxylate] | 500 to 1000 nM | 1000 to 10000 nM | 1000 to 10000 nM | 100 to 500 nM | ≤ 100 nM | 1000 to 100000 nM | > 10000 nM
12 | C=CC(=O)Nc1cc(-c2c(-c3ccc(N4CCN(C)CC4)nc3)[nH]c3ncc(C(=O)OC(C)C)cc23)ccc1C [Example 163, isopropyl 3-(3-acrylamido-4-methylphenyl)-2-(6-(4-methylpiperazin-1-yl)pyridin-3-yl)-1H-pyrrolo[2,3-b]pyridine-5-carboxylate] | ≤ 100 nM | 500 to 1000 nM | 500 to 1000 nM | ≤ 100 nM | ≤ 100 nM | 500 to 1000 nM | 1000 to 100000 nM
13 | C=CC(=O)Nc1cc(-c2c(-c3ccc(N4CCOCC4)nc3)[nH]c3ncc(C(=O)OC(C)C)cc23)ccc1C [Example 171, isopropyl 3-(3-acrylamido-4-methylphenyl)-2-(6-morpholinopyridin-3-yl)-1H-pyrrolo[2,3-b]pyridine-5-carboxylate] | 1000 to 10000 nM | 1000 to 10000 nM | 1000 to 10000 nM | 500 to 1000 nM | ≤ 100 nM | 1000 to 100000 nM | 1000 to 100000 nM
